Values quoted from earlier work in US9884040B2, “Desethylamiodarone for use in cancer treatment” (PÉCSI TUDOMÁNYEGYETEM, priority 2015, dated 2018).

Settings: in vivo; cited from earlier work

CCCCc1oc2ccccc2c1C(=O)c1cc(I)c(OCCN(CC)CC)c(I)c1 [amiodarone]
Recommended therapeutic range: < 5.7 µM
